In ChEMBL document CHEMBL1141902, “Functionalization at position 3 of the phenyl ring of the potent mGluR5 noncompetitive antagonists MPEP” (Bioorg Med Chem Lett, 2005):

What was measured:
[1] = target: T1, Metabotropic glutamate receptor 5 (Rattus norvegicus, UniProt P31424); test: Concentration required for 50% inhibition of rat metabotropic glutamate receptor 5 was determined using inositol phosphate hydrolysis assay
[2] = target: T1, Metabotropic glutamate receptor 5; test: In vitro binding affinity of compound towards rat metabotropic glutamate receptor 5 was determined by displacement of [3H]M-MPEP from rat whole brain

T1 sequence (P31424 whole entry): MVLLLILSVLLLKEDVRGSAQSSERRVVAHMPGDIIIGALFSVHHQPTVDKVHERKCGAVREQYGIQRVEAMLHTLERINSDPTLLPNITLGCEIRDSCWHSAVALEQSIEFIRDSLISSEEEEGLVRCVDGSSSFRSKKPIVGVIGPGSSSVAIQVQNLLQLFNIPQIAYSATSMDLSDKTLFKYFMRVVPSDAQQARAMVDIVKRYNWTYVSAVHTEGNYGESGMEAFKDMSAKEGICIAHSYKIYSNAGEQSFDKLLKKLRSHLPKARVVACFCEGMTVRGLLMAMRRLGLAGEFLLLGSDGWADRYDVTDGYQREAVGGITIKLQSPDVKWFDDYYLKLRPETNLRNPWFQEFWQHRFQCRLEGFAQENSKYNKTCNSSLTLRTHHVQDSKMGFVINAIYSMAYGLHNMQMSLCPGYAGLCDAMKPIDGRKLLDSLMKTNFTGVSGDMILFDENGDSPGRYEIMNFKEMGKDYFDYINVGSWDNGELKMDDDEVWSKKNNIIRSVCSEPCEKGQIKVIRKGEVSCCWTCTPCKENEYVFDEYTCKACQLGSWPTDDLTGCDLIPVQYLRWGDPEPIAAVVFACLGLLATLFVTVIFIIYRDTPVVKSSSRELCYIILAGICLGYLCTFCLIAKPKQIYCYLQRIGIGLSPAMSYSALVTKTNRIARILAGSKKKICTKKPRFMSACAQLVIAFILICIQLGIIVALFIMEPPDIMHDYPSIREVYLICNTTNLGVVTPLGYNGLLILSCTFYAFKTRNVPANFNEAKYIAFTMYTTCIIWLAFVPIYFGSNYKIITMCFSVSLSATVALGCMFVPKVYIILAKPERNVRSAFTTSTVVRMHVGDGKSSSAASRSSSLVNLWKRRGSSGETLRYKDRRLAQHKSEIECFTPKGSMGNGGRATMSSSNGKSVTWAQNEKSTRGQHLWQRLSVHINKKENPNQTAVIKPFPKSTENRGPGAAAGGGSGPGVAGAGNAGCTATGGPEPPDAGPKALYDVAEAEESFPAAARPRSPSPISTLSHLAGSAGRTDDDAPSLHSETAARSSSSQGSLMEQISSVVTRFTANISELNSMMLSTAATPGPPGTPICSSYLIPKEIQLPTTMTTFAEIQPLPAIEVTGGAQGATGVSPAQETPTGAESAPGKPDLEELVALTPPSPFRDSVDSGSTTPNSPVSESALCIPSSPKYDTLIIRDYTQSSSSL

Row | SMILES | IC50 [1] [nM] | Ki [2] [nM]
1 | COC(=O)COc1cccc(C#Cc2cccc(C)n2)c1 | 2400 | 
2 | C=CCOc1cccc(C#Cc2cccc(C)n2)c1 | 290 | 
3 | Cc1cccc(C#Cc2cccc(OC(=O)c3cccc(I)c3)c2)n1 | 1100 | 
4 | COc1cccc(COc2cccc(C#Cc3cccc(C)n3)c2)c1 | 1300 | 
5 | Cc1cccc(C#Cc2cccc(OC(=O)Cc3ccccc3)c2)n1 | 740 | 
6 | Cc1cccc(C#Cc2cccc(OCCc3ccc(F)cc3)c2)n1 | 2050 | 
7 | Cc1cccc(C#Cc2cccc(OCCCc3ccccc3)c2)n1 | 1190 | 
8 | Cc1cccc(C#Cc2cccc(OC(=O)CCCc3ccccc3)c2)n1 | 1170 | 
9 | COc1cccc(C#Cc2cccc(C)n2)c1 [M-MPEP] | 8 | 
10 | Cc1cccc(C#Cc2cncc(-c3ccccc3)c2)n1 | 20 | 1.7
11 | Cc1cccc(C#Cc2cccc(N)c2)n1 | 188 | 
12 | COc1cccc(C(=O)Oc2cccc(C#Cc3cccc(C)n3)c2)c1 | 1720 | 
13 | Cc1cccc(C#Cc2cccc(OCC3CC3)c2)n1 | 420 | 
14 | Cc1cccc(C#Cc2cccc(C#N)c2)n1 | 5 | 
15 | Cc1cccc(C#Cc2cncc(-c3cccc(C)n3)c2)n1 | 257 | 13
16 | Cc1cccc(C#Cc2cncc(-c3ccco3)c2)n1 | 205 | 6.5
17 | Cc1cccc(C#Cc2cccc(-c3ccco3)c2)n1 | 371 | 36
18 | Cc1cccc(C#Cc2cccc(OCc3ccccc3)c2)n1 | 1840 | 

Row | SMILES | IC50 [1] [nM] | Ki [2] [nM]
19 | Cc1cccc(C#Cc2cccc(OC(=O)c3ccco3)c2)n1 | 1010 | 
20 | Cc1ccc(S(=O)(=O)Oc2cccc(C#Cc3cccc(C)n3)c2)cc1 | > 10000 | 
21 | Cc1cccc(C#Cc2cccc(-c3ccccc3)c2)n1 | 629 | 993
22 | Cc1cccc(C#Cc2cccc([N+](=O)[O-])c2)n1 | 13 | 
23 | Cc1cccc(C#Cc2cccc(OS(C)(=O)=O)c2)n1 | 180 | 
24 | COc1cccc(-c2cncc(C#Cc3cccc(C)n3)c2)c1 | 282 | 74
25 | Cc1cccc(C#Cc2cccc(OC(=O)c3ccccc3)c2)n1 | 1500 | 
26 | Cc1cccc(C#Cc2cncc(-c3cccs3)c2)n1 | 271 | 155
27 | COc1cccc(-c2cccc(C#Cc3cccc(C)n3)c2)c1 | 493 | 2360
28 | Cc1cccc(C#Cc2cccc(-c3cccs3)c2)n1 | 656 | 147
29 | Cc1cccc(C#Cc2cccc(OCc3cccc(I)c3)c2)n1 | 1980 | 
30 | Cc1cccc(C#Cc2cccc(OCCCCc3ccccc3)c2)n1 | 1160 | 
31 | Cc1cccc(C#Cc2cccc(OC(=O)CCc3ccccc3)c2)n1 | 890 | 
32 | COC(=O)c1cccc(C#Cc2cccc(C)n2)c1 | 208 | 
33 | Cc1cccc(C#Cc2cccc(OC(=O)CCCBr)c2)n1 | 3350 | 
34 | CC(=O)c1cccc(C#Cc2cccc(C)n2)c1 | 146 | 
35 | Cc1cccc(C#Cc2cccc(OCCc3ccccc3)c2)n1 | 1590 | 
